Experimental data published in patent USRE46604E1, “Treatment of circadian rhythm disorders” (VANDA PHARMACEUTICALS, INC., priority 2012, dated 2017).
Like-named read-outs stand apart in the source and are kept apart here. Each block holds one molecule with its values, some of them ahead of it.

How the values were obtained:
[1] = Effect of smoking on pharmacokinetics; format: in vivo, human; details: for Vd/F: read-out: Vz/F; for half-life: read-out: t½ (converted)
Description: Smokers were defined as those smoking 10 or more cigarettes per day. Non-smokers were defined as those smoking no cigarettes per day.

[2] = Fluvoxamine co-administration pharmacokinetic study; format: in vivo, human
Experimental: Twenty-four healthy male or female subjects between the ages of 18 and 55 years of age (inclusive) who were non-smokers with a body mass index (BMI) of ≧18 and ≦35 kg/m2 participated in this open-label, single-sequence study conducted at one site. On day 1, subjects were administered 5.667 mg of tasimelteon.

[3] = target: T1, MT2R (Homo sapiens, UniProt P49286); experiment: Melatonin receptor MT2R affinity; format: binding
T1 sequence (P49286 1-362): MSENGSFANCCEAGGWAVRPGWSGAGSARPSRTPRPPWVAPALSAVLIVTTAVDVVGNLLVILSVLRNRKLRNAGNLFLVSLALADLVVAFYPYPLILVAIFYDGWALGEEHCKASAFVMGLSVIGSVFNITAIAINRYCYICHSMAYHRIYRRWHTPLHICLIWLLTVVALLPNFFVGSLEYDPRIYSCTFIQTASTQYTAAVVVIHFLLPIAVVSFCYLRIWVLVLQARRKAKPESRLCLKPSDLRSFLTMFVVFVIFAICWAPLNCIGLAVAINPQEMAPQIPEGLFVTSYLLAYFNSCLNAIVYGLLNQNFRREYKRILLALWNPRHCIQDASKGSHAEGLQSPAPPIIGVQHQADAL

[4] = test system: Non-24 patients; experiment: Entrainment by baseline peak aMT6s and beta blocker status (clinical studies); format: in vivo, humans
Experimental: A useful protocol for estimating tau in candidates for clinical testing for treatment of Non-24, which method can be applied to diagnosis of Non-24 in a given patient, is as follows: • Each subject will undergo four 48-hour urine collection sessions at nominal days 7, 14, 21, and 28. During each session, the start of the session and the time of each void will be recorded. Urine collected over periods of 4 hours (with the first 4 hour collection period of the day beginning at scheduled wake time), or about 8 hours during sleep, will be pooled (the “collection interval”); thus, subjects will have a total of 10 urine collection intervals during each 48-hour period. A study nurse will determine the volume of urine collected during each interval (urine will be transferred to a graduated cylinder) and an aliquot will be assayed for aMT6s. • For each collection interval, the start and end time of the interval will be used to determine the midpoint and duration of the interval. The start time of a given interval is defined as the last void time from the prior 4 hour (or 8 hour) collection interval; the end time of a given interval is defined as the last void time within the collection interval. • The mass of the primary melatonin metabolite (aMT6s) excreted during the interval will be determined as the product of aMT6s concentration and volume of urine. Rate of aMT6s excretion will be determined as the mass of aMT6s excreted divided by the duration of the interval. […] For screening there will be occasions when the 4 different weeks that urine collections are conducted will span a change in the clock time. Therefore, all urine collection times will be automatically translated into local standard time for calculations and then translated back to DST for reporting purposes, if appropriate. • In certain situations, urine collections or their recording will be incomplete. The following procedures will be invoked to address this: • 1. If a subject fails to timestamp a void, no action will be taken if there are multiple voids with timestamps within one interval. • 2. If there is only one void in a collection interval, and the patient cannot recall the time of the void then the entire 48 hour collection period will be excluded from the analysis and the subject will be requested to collect an additional 48 hours of urine after Day 28. It would not be possible to accurately determine to which collection interval the unmarked urine belongs. Consequently, the appropriate assignment of start and stop times to all of the collection intervals would be questionable. • 3. If a void is discarded by the patient but the time of the void is known, duration associated with that void (time of the void minus the time of the previous void) will be subtracted from the total duration associated with that interval. This modified duration will be used to calculate rate of aMT6s excretion. If a discarded sample is either the first or last of the samples in an interval, the midpoint of that interval will be calculated without considering that sample. • 4. If fewer than 4 samples are available for one 48-hour collection session, fitting of the cosine will be compromised (inadequate degrees of freedom). Consequently, acrophase will not be determined if fewer than four samples are available. • For each session, acrophase will be determined by fitting a cosine to the data from that session using unweighted non-linear regression. Fitting will be performed using a non-linear least squares fitting algorithm. The fitting process will estimate phase shift, mesor, and amplitude and their respective standard errors; period of the cosine will be fixed to 24 hours.* • Acrophase will be determined as the phase shift modulus 24 hours. • If acrophase values are available for three or more sessions, tau will be calculated using the following procedure: • 1. Acrophase will be recalculated relative to day 0 (24·start day for each session+acrophase). • 2. […]

[5] = tmax as stated in text; details: in vivo
[6] = target: MT1R (Homo sapiens, UniProt P48039); experiment: Melatonin receptor MT1R affinity; format: binding
[7] = Smokers (10 or more cigarettes per day)
[8] = both sexes, human, in vivo, Day 1: 5.667 mg tasimelteon alone
[9] = compared to tasimelteon administered alone
[10] = human, in vivo, Smokers (10 or more cigarettes per day)

Sequence of MT1R (P48039 whole entry): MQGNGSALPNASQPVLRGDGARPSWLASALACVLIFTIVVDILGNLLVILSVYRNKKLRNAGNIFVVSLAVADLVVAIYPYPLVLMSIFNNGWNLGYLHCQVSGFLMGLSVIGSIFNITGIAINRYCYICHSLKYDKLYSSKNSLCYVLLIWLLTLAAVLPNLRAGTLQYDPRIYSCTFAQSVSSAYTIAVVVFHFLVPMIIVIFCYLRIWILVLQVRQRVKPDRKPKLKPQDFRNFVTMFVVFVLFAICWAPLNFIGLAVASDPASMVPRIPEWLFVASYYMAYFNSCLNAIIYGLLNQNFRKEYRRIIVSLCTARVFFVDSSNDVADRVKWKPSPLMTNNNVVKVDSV

SMILES: CCC(=O)NC[C@@H]1CC1c1cccc(O)c1CC(=O)O (some centres unmarked) [M11]
AUC(0-inf) [2, 8]: 104 ± 30 ng·h/mL

SMILES: CCC(=O)NC[C@@H]1C[C@H]1c1cccc2c1CCO2 (relative stereo) [Tasimelteon, trans-N-[[2-(2,3-dihydrobenzofuran-4-yl)cycloprop-1yl]methyl]propanamide]
AUC(0-inf) [2, 8]: 102 ± 61.5 ng·h/mL
Cmax [2, 8]: 68 ± 28.9 ng/mL
Tmax [2, 8]: 30 min
half-life ([2]; both sexes, human, in vivo, Day 1: 5.667 mg tasimelteon alone, read-out: t½ (converted)): 72 ± 13.2 min
increase of AUC0-inf upon co-administration of fluvoxamine [2, 9]: approximately 7 fold
increase of Cmax upon co-administration of fluvoxamine [2, 9]: approximately 2 fold
Ki [3]: 0.1 to 0.2 nM
Entrained, percent of patients ([4]; Peak aMT6s <1500 ng/hr): 41%
Non-entrained, percent of patients ([4]; Peak aMT6s <1500 ng/hr): 59%
Entrained, percent of patients ([4]; Peak aMT6s <2000 ng/hr): 38%
Non-entrained, percent of patients ([4]; Peak aMT6s <2000 ng/hr): 62%
Entrained, percent of patients ([4]; Peak aMT6s ≧1500 ng/hr): 67%
Non-entrained, percent of patients ([4]; Peak aMT6s ≧1500 ng/hr): 33%
Entrained, percent of patients ([4]; Peak aMT6s ≧2000 ng/hr): 85%
Non-entrained, percent of patients ([4]; Peak aMT6s ≧2000 ng/hr): 15%
Entrained, percent of patients ([4]; Peak aMT6s: All): 51%
Non-entrained, percent of patients ([4]; Peak aMT6s: All): 49%
Tmax [5]: approximately one-half
Ki [6]: 0.3 to 0.4 nM
AUC(0-inf) ([1]; human, in vivo, Non-Smokers): 389 ± 429 ng·h/mL
Cmax ([1]; human, in vivo, Non-Smokers): 239 ± 177 ng/mL
Tmax ([1]; human, in vivo, Non-Smokers, read-out: Tmax): 30 min
Vd/F ([1]; human, in vivo, Non-Smokers): 133 ± 83 L
half-life ([1]; human, in vivo, Non-Smokers): 70.8 ± 27.6 min
AUC(0-inf) [1, 10]: 205 ± 152 ng·h/mL
Cmax [1, 10]: 136 ± 59.5 ng/mL
Tmax ([1]; human, in vivo, Smokers (10 or more cigarettes per day), read-out: Tmax): 45 min
Vd/F [1, 10]: 189 ± 94.2 L
half-life [1, 10]: 59.4 ± 10.8 min

SMILES: CCC(=O)NC[C@@H]1CC1c1cccc(O)c1CCO (some centres unmarked) [M9]
AUC(0-inf) [2, 8]: 44.5 ± 17.2 ng·h/mL

Now from value to molecule:

AUC (inf) [1, 7]: 9.45 ± 11.88 h x ng/mL
Tmax [1, 7]: 45 min
SMILES: CCC(=O)NCC1CC1c1cccc2c1C(O)CO2 (centres unmarked) [M14]

AUC (inf) [1, 7]: 526 ± 193 h x ng/mL
Tmax [1, 7]: 60 min
SMILES: CCC(=O)NCC1CC1c1cccc2c1C(O)CO2 (centres unmarked) [M12]
